Measured values from US20250136586A1, “Substituted 7-(Pyrimidin-4-yl)Quinolin-4(1H)-One Compounds as Cyclin Dependent Kinase Inhibitors” (BeiGene, Ltd., priority 2022, published 2025).

How the values were obtained:
CDK4/Cyclin D1 = CDK4/Cyclin D1 (Homo sapiens (Human), UniProt P11802); assay: TR-FRET kinase inhibition assay, CDK4/Cyclin D1; format: biochemical; details: 1 mM ATP, 0.15 μM Rb (Ser780)-biotin substrate, read-out: CDK4D1 IC50
Experimental: Compounds disclosed herein were tested for inhibition of CDK4/Cyclin D1 or CDK6/Cyclin D3 kinase in an assay based on the time-resolved fluorescence-resonance energy transfer (TR-FRET) methodology. […] The kinase was incubated with compound for 60 minutes at room temperature and the reaction was initiated by the addition of ATP and Rb (Ser780)-biotin substrate. After reaction at room temperature for 120 minutes, an equal volume of stop/detection solution was added according to the manufacture's instruction (Cisbio Bioassays). The stop/detection solution contained Streptavidin-XL665 and Anti-pRb (Ser780) mAb-Eu Cryptate in Detection buffer (Cisbio Bioassays). […] The inhibition percentage of CDK4/Cyclin D1 or CDK6/Cyclin D3 kinase activity in presence of increasing concentrations of compounds was calculated based on the ratio of fluorescence at 665 nm to that at 620 nm. The IC50 for each compound was derived from fitting the data to the four-parameter logistic equation by Dotmatics.

CDK6/Cyclin D3 = CDK6/Cyclin D3 (Homo sapiens (Human), UniProt Q00534); assay: TR-FRET kinase inhibition assay, CDK6/Cyclin D3; format: biochemical; details: 1 mM ATP, 0.15 μM Rb (Ser780)-biotin substrate, read-out: CDK6D3 IC50
Sequence of CDK6/Cyclin D3 (Q00534 whole entry): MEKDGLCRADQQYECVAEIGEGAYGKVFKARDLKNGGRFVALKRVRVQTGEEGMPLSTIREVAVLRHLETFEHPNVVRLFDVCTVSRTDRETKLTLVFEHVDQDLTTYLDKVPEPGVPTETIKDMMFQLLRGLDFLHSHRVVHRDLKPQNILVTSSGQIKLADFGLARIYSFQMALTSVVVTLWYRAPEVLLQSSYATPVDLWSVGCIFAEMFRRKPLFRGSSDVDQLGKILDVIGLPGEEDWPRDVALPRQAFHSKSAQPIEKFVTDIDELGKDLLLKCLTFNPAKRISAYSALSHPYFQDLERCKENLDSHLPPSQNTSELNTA
Sequence of CDK6/Cyclin D3 (P30281 whole entry partner): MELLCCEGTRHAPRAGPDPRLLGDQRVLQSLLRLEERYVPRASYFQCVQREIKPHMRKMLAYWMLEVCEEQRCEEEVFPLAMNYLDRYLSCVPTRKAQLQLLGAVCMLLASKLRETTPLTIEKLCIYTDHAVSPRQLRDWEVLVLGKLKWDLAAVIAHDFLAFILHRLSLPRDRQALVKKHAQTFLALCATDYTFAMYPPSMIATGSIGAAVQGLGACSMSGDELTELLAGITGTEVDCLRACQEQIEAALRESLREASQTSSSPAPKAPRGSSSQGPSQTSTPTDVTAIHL
Experimental: Compounds disclosed herein were tested for inhibition of CDK4/Cyclin D1 or CDK6/Cyclin D3 kinase in an assay based on the time-resolved fluorescence-resonance energy transfer (TR-FRET) methodology. The assay was carried out in 384-well low volume black plates in a reaction mixture containing CDK4/Cyclin D1 or CDK6/Cyclin D3, 1 mM ATP, 0.15 μM Rb (Ser780)-biotin substrate and 0-10 μM compound in buffer containing 50 mM HEPES pH7.0, 0.02% NaN3, 0.01% BSA, 0.1 mM Orthovanadate, 50 mM MgCl2, 1 mM DTT and 0.005% Tween-20. The kinase was incubated with compound for 60 minutes at room temperature and the reaction was initiated by the addition of ATP and Rb (Ser780)-biotin substrate. After reaction at room temperature for 120 minutes, an equal volume of stop/detection solution was added according to the manufacture's instruction (Cisbio Bioassays). The stop/detection solution contained Streptavidin-XL665 and Anti-pRb (Ser780) mAb-Eu Cryptate in Detection buffer (Cisbio Bioassays). Plates were incubated at room temperature for 60 minutes, and the TR-FRET signals (ex337 nm, em665 nm/620 nm) were recorded on a PHERAstar FSX plate reader (BMG Labtech). The inhibition percentage of CDK4/Cyclin D1 or CDK6/Cyclin D3 kinase activity in presence of increasing concentrations of compounds was calculated based on the ratio of fluorescence at 665 nm to that at 620 nm. The IC50 for each compound was derived from fitting the data to the four-parameter logistic equation by Dotmatics.

Sequence of CDK4/Cyclin D1 (P11802 whole entry): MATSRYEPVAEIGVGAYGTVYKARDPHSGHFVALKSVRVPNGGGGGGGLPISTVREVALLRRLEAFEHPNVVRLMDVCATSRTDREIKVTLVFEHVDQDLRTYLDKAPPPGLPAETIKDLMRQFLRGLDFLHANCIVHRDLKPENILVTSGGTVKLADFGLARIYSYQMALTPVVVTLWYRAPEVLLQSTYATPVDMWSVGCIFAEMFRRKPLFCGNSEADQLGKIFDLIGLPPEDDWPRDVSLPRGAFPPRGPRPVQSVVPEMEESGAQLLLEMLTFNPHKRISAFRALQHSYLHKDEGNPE
Sequence of CDK4/Cyclin D1 (P24385 whole entry partner): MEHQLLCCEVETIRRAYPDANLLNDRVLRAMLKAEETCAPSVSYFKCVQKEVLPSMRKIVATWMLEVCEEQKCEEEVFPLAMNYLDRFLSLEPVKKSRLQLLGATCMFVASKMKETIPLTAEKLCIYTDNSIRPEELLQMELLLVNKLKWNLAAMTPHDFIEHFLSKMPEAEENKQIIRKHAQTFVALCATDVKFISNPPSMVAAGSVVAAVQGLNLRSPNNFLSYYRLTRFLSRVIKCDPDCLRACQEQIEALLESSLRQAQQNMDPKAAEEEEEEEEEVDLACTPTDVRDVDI

SMILES | IC50 (CDK4/Cyclin D1) [nM] | IC50 (CDK6/Cyclin D3) [nM]
Cc1cn(C(C)C)c2cc(-c3nc(N[C@@H]4CCOC[C@H]4O)ncc3F)ccc2c1=O [Example 2, 7-(5-fluoro-2-(((3S,4R)-3-hydroxytetrahydro-2H-pyran-4-yl)amino)pyrimidin-4-yl)-1-isopropyl-3-methylquinolin-4(1H)-one] | 68 | 1220
COc1ccc(NCc2cc(=O)c3ccc(-c4nc(N[C@@H]5CCOC[C@H]5O)ncc4F)cc3n2C(C)C)cc1 [Example 101, 7-(5-fluoro-2-(((3S,4R)-3-hydroxytetrahydro-2H-pyran-4-yl)amino)pyrimidin-4-yl)-1-isopropyl-2-(((4-methoxyphenyl)amino)methyl)quinolin-4(1H)-one] | 26 | 312
Cc1c(CN2CCC[C@H](O)C2)n(C(C)C)c2cc(-c3nc(N[C@@H]4CCOC[C@H]4O)ncc3F)ccc2c1=O [Example 123, 7-(5-fluoro-2-(((3S,4R)-3-hydroxytetrahydro-2H-pyran-4-yl)amino)pyrimidin-4-yl)-2-(((S)-3-hydroxypiperidin-1-yl)methyl)-1-isopropyl-3-methylquinolin-4(1H)-one] | 4.3 | 129
CC(C)n1c(CN2CCS(=O)(=O)CC2)cc(=O)c2ccc(-c3nc(N[C@@H]4CCOC[C@H]4O)ncc3F)cc21 [Example 83, 2-((1,1-dioxidothiomorpholino)methyl)-7-(5-fluoro-2-(((3S,4R)-3-hydroxytetrahydro-2H-pyran-4-yl)amino)pyrimidin-4-yl)-1-isopropylquinolin-4(1H)-one] | 32 | 928
CC(=O)c1cn(C(C)C)c2cc(-c3nc(N[C@@H]4CCOC[C@H]4O)ncc3F)ccc2c1=O [Example 4, 3-acetyl-7-(5-fluoro-2-(((3S,4R)-3-hydroxytetrahydro-2H-pyran-4-yl)amino)pyrimidin-4-yl)-1-isopropylquinolin-4(1H)-one] | 251 | 979
CC(C)n1c(CN[C@@H]2CCCOC2)cc(=O)c2ccc(-c3nc(N[C@@H]4CCOC[C@H]4O)ncc3F)cc21 [Example 59, 7-(5-fluoro-2-(((3S,4R)-3-hydroxytetrahydro-2H-pyran-4-yl)amino)pyrimidin-4-yl)-1-isopropyl-2-((((R)-tetrahydro-2H-pyran-3-yl)amino)methyl)quinolin-4(1H)-one] | 27 | 675
CC(C)n1c(CN2C[C@@H](O)[C@@H](F)C2)cc(=O)c2ccc(-c3nc(N[C@@H]4CCOC[C@H]4O)ncc3F)cc21 [Example 31, 7-(5-fluoro-2-(((3S,4R)-3-hydroxytetrahydro-2H-pyran-4-yl)amino)pyrimidin-4-yl)-2-(((3S,4R)-3-fluoro-4-hydroxypyrrolidin-1-yl)methyl)-1-isopropylquinolin-4(1H)-one] | 13 | 481
CC(C)n1c(CN)cc(=O)c2ccc(-c3nc(N[C@@H]4CCOC[C@H]4O)ncc3F)cc21 [Example 35] | 6.9 | 276
CC(C)n1c(CO)cc(=O)c2ccc(-c3nc(N[C@@H]4CCOC[C@H]4O)ncc3F)cc21 [Example 17, 7-(5-fluoro-2-(((3S,4R)-3-hydroxytetrahydro-2H-pyran-4-yl)amino)pyrimidin-4-yl)-2-(hydroxymethyl)-1-isopropylquinolin-4(1H)-one] | 7.5 | 120
Cc1cc(=O)c2ccc(-c3nc(N[C@@H]4CCOC[C@H]4O)ncc3F)cc2n1C1CCCC1 [Example 10, 1-cyclopentyl-7-(5-fluoro-2-(((3S,4R)-3-hydroxytetrahydro-2H-pyran-4-yl)amino)pyrimidin-4-yl)-2-methylquinolin-4(1H)-one] | 40 | 1440
CC(C)n1c(CN2CCOCC2)cc(=O)c2ccc(-c3nc(N[C@@H]4CCOC[C@H]4O)ncc3F)cc21 [Example 25, 7-(5-fluoro-2-(((3S,4R)-3-hydroxytetrahydro-2H-pyran-4-yl)amino)pyrimidin-4-yl)-1-isopropyl-2-(morpholinomethyl)quinolin-4(1H)-one] | 8.2 | 139
CC(C)n1c(CN2CCOC[C@@H]2C)cc(=O)c2ccc(-c3nc(N[C@@H]4CCOC[C@H]4O)ncc3F)cc21 [Example 53, 7-(5-fluoro-2-(((3S,4R)-3-hydroxytetrahydro-2H-pyran-4-yl)amino)pyrimidin-4-yl)-1-isopropyl-2-(((S)-3-methylmorpholino)methyl)quinolin-4(1H)-one] | 11 | 165
CC(C)n1cc(Cl)c(=O)c2ccc(-c3nc(N[C@@H]4CCOC[C@H]4O)ncc3F)cc21 [Example 12, 3-chloro-7-(5-fluoro-2-(((3S,4R)-3-hydroxytetrahydro-2H-pyran-4-yl)amino)pyrimidin-4-yl)-1-isopropylquinolin-4(1H)-one] | 258 | 1930
CCc1cc(=O)c2ccc(-c3nc(N[C@@H]4CCOC[C@H]4O)ncc3F)cc2n1C(C)C [Example 55, 2-ethyl-7-(5-fluoro-2-(((3S,4R)-3-hydroxytetrahydro-2H-pyran-4-yl)amino)pyrimidin-4-yl)-1-isopropylquinolin-4(1H)-one] | 15 | 345
CC(C)n1c(CN2C[C@@H]3C[C@H]2CO3)cc(=O)c2ccc(-c3nc(N[C@@H]4CCOC[C@H]4O)ncc3F)cc21 [Example 34, 2-(((1S,4S)-2-oxa-5-azabicyclo[2.2.1]heptan-5-yl)methyl)-7-(5-fluoro-2-(((3S,4R)-3-hydroxytetrahydro-2H-pyran-4-yl)amino)pyrimidin-4-yl)-1-isopropylquinolin-4(1H)-one] | 10 | 430
Cc1c(CN2[C@H](C)COC[C@@H]2C)n(C(C)C)c2cc(-c3nc(N[C@@H]4CCOC[C@H]4O)ncc3F)ccc2c1=O [Example 72, 2-(((3R,5S)-3,5-dimethylmorpholino)methyl)-7-(5-fluoro-2-(((3S,4R)-3-hydroxytetrahydro-2H-pyran-4-yl)amino)pyrimidin-4-yl)-1-isopropyl-3-methylquinolin-4(1H)-one] | 0.8 | 21.6
CC(C)n1ccc(=O)c2c(Cl)cc(-c3nc(N[C@@H]4CCOC[C@H]4O)ncc3Cl)cc21 [Example 1, 5-chloro-7-(5-chloro-2-(((3S,4R)-3-hydroxytetrahydro-2H-pyran-4-yl)amino)pyrimidin-4-yl)-1-isopropylquinolin-4(1H)-one] | 101 | 808
CC(C)n1c(CNc2cccc(Cl)c2)cc(=O)c2ccc(-c3nc(N[C@@H]4CCOC[C@H]4O)ncc3F)cc21 [Example 95, 2-(((3-chlorophenyl)amino)methyl)-7-(5-fluoro-2-(((3S,4R)-3-hydroxytetrahydro-2H-pyran-4-yl)amino)pyrimidin-4-yl)-1-isopropylquinolin-4(1H)-one] | 13 | 208
CC(C)n1c(CN[C@H]2C[C@H](F)C2)cc(=O)c2ccc(-c3nc(N[C@@H]4CCOC[C@H]4O)ncc3F)cc21 [Example 63, 7-(5-fluoro-2-(((3S,4R)-3-hydroxytetrahydro-2H-pyran-4-yl)amino)pyrimidin-4-yl)-2-((((1r,3R)-3-fluorocyclobutyl)amino)methyl)-1-isopropylquinolin-4(1H)-one] | 22 | 484
CC(C)n1c(CN2CC(O)C2)cc(=O)c2ccc(-c3nc(N[C@@H]4CCOC[C@H]4O)ncc3F)cc21 [Example 30, 7-(5-fluoro-2-(((3S,4R)-3-hydroxytetrahydro-2H-pyran-4-yl)amino)pyrimidin-4-yl)-2-((3-hydroxyazetidin-1-yl)methyl)-1-isopropylquinolin-4(1H)-one] | 30 | 780
CNC(=O)c1cc(=O)c2ccc(-c3nc(N[C@@H]4CCOC[C@H]4O)ncc3F)cc2n1C(C)C [Example 7, 7-(5-fluoro-2-(((3S,4R)-3-hydroxytetrahydro-2H-pyran-4-yl)amino)pyrimidin-4-yl)-1-isopropyl-N-methyl-4-oxo-1,4-dihydroquinoline-2-carboxamide] | 14 | 574
Cc1c(C2CCCN2)n(C(C)C)c2cc(-c3nc(N[C@@H]4CCOC[C@H]4O)ncc3F)ccc2c1=O (stereo partly drawn) [Example 389, 7-(5-fluoro-2-(((3S,4R)-3-hydroxytetrahydro-2H-pyran-4-yl)amino)pyrimidin-4-yl)-1-isopropyl-3-methyl-2-(pyrrolidin-2-yl)quinolin-4(1H)-one] | 1.6 | 220
